According to US9815840B2 (CJ Healthcare Corporation, priority 2013, dated 2017):

Molecular target: c-Met (Homo sapiens (Human), UniProt P08581)
Assay: Analysis of the inhibition of c-Met activity (ADP-Glo Kinase Assay)
Type: biochemical
Conditions: c-Met enzyme 2 ng/μL, 250 μM G4Y1 peptide, 50 μM ATP, 1 hour at room temperature, luminescence
Description: Analysis of the Inhibition of c-Met Activity (ADP-Glo™ Kinase Assay
The inhibitory effect of the compounds of the present invention on the activity of c-Met was confirmed as follows.
Specifically, 250 μM G4Y1 peptide, which serves as a substrate for c-Met enzyme (2 ng/μL), and 50 μM ATP were subjected to an enzyme reaction in a reaction buffer (40 mM Tris-HCl (pH 7.5), 20 mM MgCl2, 0.1 mg/mL bovine serum albumin, and 50 μM DTT). The compounds prepared in Examples and comparative compounds were treated at various concentrations and reacted at room temperature for 1 hour, sequentially added with ADP-Glo™ Reagent and the Kinase detection reagent, and reacted at room temperature for 40 minutes and 30 minutes, respectively.
Then, luminescence of the compounds was measured using the Wallaac Victor 2™ (PerkinElmer life sciences, 1420-042). The activity of c-Met inhibitors was evaluated by analyzing the data based on the measured RLU values. The activity of c-Met inhibitors was evaluated as the percentage of remaining activity of the c-Met enzyme in the samples treated with the compounds at concentrations to be tested, with the RLU value of the sample set at 100% control group.

Sequence of c-Met (P08581 25-1390): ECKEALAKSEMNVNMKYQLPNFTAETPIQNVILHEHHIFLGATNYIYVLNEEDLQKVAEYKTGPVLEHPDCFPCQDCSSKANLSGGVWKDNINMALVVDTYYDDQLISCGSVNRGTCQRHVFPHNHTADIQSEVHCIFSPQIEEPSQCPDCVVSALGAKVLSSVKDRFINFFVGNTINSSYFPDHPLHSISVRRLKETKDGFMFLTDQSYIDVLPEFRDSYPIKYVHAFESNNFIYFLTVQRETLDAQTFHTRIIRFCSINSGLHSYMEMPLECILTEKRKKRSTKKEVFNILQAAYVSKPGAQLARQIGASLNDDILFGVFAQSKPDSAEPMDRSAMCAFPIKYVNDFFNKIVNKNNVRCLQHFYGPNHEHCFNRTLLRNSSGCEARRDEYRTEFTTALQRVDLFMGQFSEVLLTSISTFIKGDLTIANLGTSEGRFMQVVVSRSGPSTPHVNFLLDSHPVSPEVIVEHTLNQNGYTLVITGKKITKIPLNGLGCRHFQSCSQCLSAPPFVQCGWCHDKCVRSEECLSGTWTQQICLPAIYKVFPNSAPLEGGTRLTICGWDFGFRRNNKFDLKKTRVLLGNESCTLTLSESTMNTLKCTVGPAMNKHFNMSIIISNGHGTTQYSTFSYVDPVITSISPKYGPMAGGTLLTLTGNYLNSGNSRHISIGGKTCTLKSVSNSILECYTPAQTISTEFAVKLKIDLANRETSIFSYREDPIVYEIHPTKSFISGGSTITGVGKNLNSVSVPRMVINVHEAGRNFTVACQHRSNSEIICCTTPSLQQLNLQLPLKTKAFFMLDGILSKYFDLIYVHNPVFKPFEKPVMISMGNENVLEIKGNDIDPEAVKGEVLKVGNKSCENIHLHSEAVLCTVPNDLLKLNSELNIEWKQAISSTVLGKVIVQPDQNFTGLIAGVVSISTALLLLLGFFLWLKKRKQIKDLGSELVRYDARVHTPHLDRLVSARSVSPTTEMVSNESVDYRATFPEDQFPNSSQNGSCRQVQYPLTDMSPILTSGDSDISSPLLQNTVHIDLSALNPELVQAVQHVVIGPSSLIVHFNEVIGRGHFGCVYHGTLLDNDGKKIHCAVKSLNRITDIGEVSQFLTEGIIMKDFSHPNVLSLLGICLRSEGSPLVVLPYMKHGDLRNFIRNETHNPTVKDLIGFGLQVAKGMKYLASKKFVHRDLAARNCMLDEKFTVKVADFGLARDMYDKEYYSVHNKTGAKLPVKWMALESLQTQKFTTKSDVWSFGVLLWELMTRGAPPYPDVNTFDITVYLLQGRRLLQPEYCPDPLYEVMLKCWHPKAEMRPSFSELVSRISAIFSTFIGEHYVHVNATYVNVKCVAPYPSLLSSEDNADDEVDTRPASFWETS

Structure (SMILES) | IC50 [µM]
CCOc1ccn(-c2ccc(F)cc2)c(=O)c1C(=O)Nc1ccc(Oc2ccnn3ccc(-c4cccc(C=O)c4)c23)c(F)c1 [Example 23, 4-ethoxy-N-(3-fluoro-4-((5-(3-formylphenyl)pyrrolo[1,2-b]pyridazin-4-yl)oxy)phenyl)-1-(4-fluorophenyl)-2-oxo-1,2-dihydropyridin-3-carboxamide] | < 0.04
CCOc1ccn(-c2ccc(F)cc2)c(=O)c1C(=O)Nc1ccc(Oc2ccnn3ccc(-c4cccc(C(C)(C)O)c4)c23)c(F)c1 [Example 43, 4-ethoxy-N-(3-fluoro-4-((5-(3-(2-hydroxypropan-2-yl)phenyl)pyrrolo[1,2-b]pyridazin-4-yl)oxy)phenyl)-1-(4-fluorophenyl)-2-oxo-1,2-dihydropyridin-3-carboxamide] | < 0.04
CCOc1ccn(-c2ccc(F)cc2)c(=O)c1C(=O)Nc1ccc(Oc2ccnn3ccc(-c4cccc(C(C)O)c4)c23)c(F)c1 (centres unmarked) [Example 46, 4-ethoxy-N-(3-fluoro-4-((5-(3-(1-hydroxyethyl)phenyl)pyrrolo[1,2-b]pyridazin-4-yl)oxy)phenyl)-1-(4-fluorophenyl)-2-oxo-1,2-dihydropyridin-3-carboxamide] | < 0.04
CCOc1ccn(-c2ccc(F)cc2)c(=O)c1C(=O)Nc1ccc(Oc2ccnn3ccc(-c4cccc(CN5CCOCC5)c4)c23)c(F)c1 [Example 49] | < 0.04
CCOc1ccn(-c2ccc(F)cc2)c(=O)c1C(=O)Nc1ccc(Oc2ccnn3ccc(-c4cccc(C(=O)N5CCOCC5)c4)c23)c(F)c1 [Example 50, 4-ethoxy-N-(3-fluoro-4-((5-(3-morpholin-4-carbonylphenyl)pyrrolo[1,2-b]pyridazin-4-yl)oxy)phenyl)-1-(4-fluorophenyl)-2-oxo-1,2-dihydropyridin-3-carboxamide] | < 0.04
CCOc1ccn(-c2ccc(F)cc2)c(=O)c1C(=O)Nc1ccc(Oc2ccnn3ccc(-c4cccc(CN(C)C)c4)c23)c(F)c1 [Example 56, N-(4-((5-(3-((dimethylamino)methyl)phenyl)pyrrolo[1,2-b]pyridazin-4-yl)oxy)-3-fluorophenyl)-4-ethoxy-1-(4-fluorophenyl)-2-oxo-1,2-dihydropyridin-3-carboxamide] | < 0.04

The next lines start with the values.

IC50 [µM] | Structure (SMILES)
< 0.04 | CCOc1ccn(-c2ccc(F)cc2)c(=O)c1C(=O)Nc1ccc(Oc2ccnn3ccc(-c4ccncc4)c23)c(F)c1 [Example 7]
< 0.04 | O=C(Nc1ccc(Oc2ccnn3ccc(-c4cccc(CO)c4)c23)c(F)c1)c1cccn(-c2ccc(F)cc2)c1=O [Example 29]
< 0.04 | CC(O)c1cccc(-c2ccn3nccc(Oc4ccc(NC(=O)c5cccn(-c6ccc(F)cc6)c5=O)cc4F)c23)c1 (centres unmarked) [Example 47, N-(3-fluoro-4-((5-(3-(1-hydroxyethyl)phenyl)pyrrolo[1,2-b]pyridazin-4-yl)oxy)phenyl)-1-(4-fluorophenyl)-2-oxo-1,2-dihydropyridin-3-carboxamide]
< 0.04 | CCOc1ccn(-c2ccc(F)cc2)c(=O)c1C(=O)Nc1ccc(Oc2ccnn3ccc(-c4cccc(N)c4)c23)c(F)c1 [Example 53, 4-ethoxy-N-(3-fluoro-4-((5-(3-aminophenyl)pyrrolo[1,2-b]pyridazin-4-yl)oxy)phenyl)-1-(4-fluorophenyl)-2-oxo-1,2-dihydropyridin-3-carboxamide]
< 0.04 | Cc1ccc(-c2ccn3nccc(Oc4ccc(NC(=O)C5(C(=O)Nc6ccc(F)cc6)CC5)cc4F)c23)cc1N [Example 78]
< 0.04 | Cc1c(N)cccc1-c1ccn2nccc(Oc3ccc(NC(=O)C4(C(=O)Nc5ccc(F)cc5)CC4)cc3F)c12 [Example 79]
< 0.04 | COc1ccc(-c2ccn3nccc(Oc4ccc(NC(=O)C5(C(=O)Nc6ccc(F)cc6)CC5)cc4F)c23)cc1N [Example 82]
< 0.04 | Nc1ccc(F)c(-c2ccn3nccc(Oc4ccc(NC(=O)C5(C(=O)Nc6ccc(F)cc6)CC5)cc4F)c23)c1 [Example 83]
